Several values for one entry are separate records, joined by “and”; a condition that tells them apart may be missing. Equal values may be shown once.
Experiments:
SSTR2 = SSTR2 (Homo sapiens, UniProt P30874); assay: Radioligand-receptor binding assay, [125I] labeled somatostatin; design: host or cells: CHO-K1
Experimental: Two conjugates were assessed in an in vitro assay evaluating binding to the somatostatin receptor 2 (SSTR2). A radioligand-receptor binding assay was conducted at Eurofins Panlabs (Taiwan) to determine the affinity of conjugates described herein to the SSTR2. The assay measures binding of radiolabeled ligand, [^125I] labeled somatostatin, to human SSTR2 using membrane preparations from SSTR2 expressing CHO-K1 cells. Membranes were incubated with radiolabeled somatostatin (0.03 nM) in the presence of conjugate/compound starting at a dose of 10 uM using 6× serial dilutions to obtain a 10-pt curve. After a four hour incubation, membranes were filtered and washed 3× and counted to determine the remaining[^125 I] somatostatin bound to the receptor. IC50 values were determined by a non-linear, least squares regression analysis using MathIQ™ (ID Business Solutions Ltd., UK). The Ki values were calculated using the equation of Cheng and Prusoff (Cheng and Prusoff, Biochem. Pharmacol. 22:3099-3108, 1973) using the observed IC50 of the tested conjugate/compound, the concentration of radioligand employed in the assay, and the historical values for the KD of the ligand obtained at Eurofins.

HCC-33 (SCLC) xenografts = assay: HCC-33 (SCLC) xenografts, tumor growth inhibition (Example 13); format: in vivo; settings: for TGI % Day 5 / TGI % Day 8 / TGI % Day 12 / TGI % Day 16 / TGI % Day 20 / TGI % Day 23 / TGI % Day 27 / TGI % Day 30: dosed on Day 1 and Day 8
Experimental: The efficacy of Conjugate 57 was studied with HCC-33 (SCLC) xenografts. Conjugate 57 was dosed on Day 1 and Day 8.

[1] = system: NCI-H524 human small cell lung cancer cells; assay: cells; format: cell-based; settings: NCI-H524 proliferation
Experimental: Conjugates of the present invention were assessed in an in vitro assay evaluating inhibition of cell proliferation. NCI-H524 (ATCC) human small cell lung cancer cells were plated in 96 well, V-bottomed plates (Costar) at a concentration of 5,000 cells/well. 24 hours later, cells were treated with either conjugate for 2 hours and further incubated 70 hours, or for octreotide competition experiments, treated with 100 μM octreotide for 30 min, and then treated with conjugate for 2 hours, and further incubated for 70 hours. Conjugate starting dose was 20 μM and three fold serial dilutions were done for a total of ten points. After 2 hours of treatment, cells were spun down, the drug containing media was removed, and fresh complete medium was added and used to resuspend the cells, which were spun again. After removal of the wash media, the cells were resuspended in complete medium, and then transferred into white walled, flat bottomed 96 well plates. […] Proliferation was measured using CellTiter Glo reagent using the standard protocol (Promega) and a Glomax multi+ detection system (Promega). Percent proliferation inhibition was calculated using the following formula: % inhibition=(control−treatment)/control*100. Control is defined as vehicle alone. IC50 curves were generated using the nonlinear regression analysis (four parameter) with GraphPad Prism 6.

[2] = both groups (2 mg/kg and 1 mg/kg)

Chain of SSTR2 (P30874 whole entry): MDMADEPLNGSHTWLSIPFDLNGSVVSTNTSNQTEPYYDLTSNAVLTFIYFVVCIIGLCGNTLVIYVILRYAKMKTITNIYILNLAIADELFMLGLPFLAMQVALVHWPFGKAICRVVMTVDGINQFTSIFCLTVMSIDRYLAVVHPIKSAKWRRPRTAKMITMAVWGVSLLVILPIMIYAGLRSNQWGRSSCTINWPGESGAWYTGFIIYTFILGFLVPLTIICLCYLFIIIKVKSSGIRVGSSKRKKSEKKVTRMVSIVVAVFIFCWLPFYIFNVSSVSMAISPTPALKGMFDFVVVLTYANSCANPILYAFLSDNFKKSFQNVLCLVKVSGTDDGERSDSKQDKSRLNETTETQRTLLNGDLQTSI

COc1cc2cc(c1Cl)N(C)C(=O)C[C@H](OC(=O)[C@H](C)N(C)C(=O)CCSSC[C@H](NC(=O)[C@@H]1CSSC[C@H](NC(=O)[C@H](N)Cc3ccccc3)C(=O)N[C@@H](Cc3ccc(O)cc3)C(=O)N[C@H](Cc3c[nH]c4ccccc34)C(=O)N[C@@H](CCCCN)C(=O)N[C@@H]([C@@H](C)O)C(=O)N1)C(N)=O)[C@]1(C)O[C@H]1[C@H](C)[C@@H]1C[C@@](O)(NC(=O)O1)[C@H](OC)/C=C/C=C(\C)C2 [Conjugate 57]
SSTR affinity of Conjugate 57 relative to Conjugate 120 (SSTR2): 100,00 fold | Ki (SSTR2; Conjugate 57 Ki (nM), SSTR2): 0.018 nM and 0.0177 nM | Ki (SSTR2; Ki (nm), SSTR affinity, Example 8): 0.017 nM | Ki (SSTR2; SSTR2 Ki (nM), membranes from SSTR2 expressing CHO-K1 cells): 0.018 nM | TGI % Day 5 (HCC-33 (SCLC) xenografts; 1 mg/kg): 46.2% | TGI % Day 8 (HCC-33 (SCLC) xenografts; 1 mg/kg): 71.3% | TGI % Day 12 (HCC-33 (SCLC) xenografts; 1 mg/kg): 87.2% | TGI % Day 16 (HCC-33 (SCLC) xenografts; 1 mg/kg): 96.3% | TGI % Day 20 (HCC-33 (SCLC) xenografts; 1 mg/kg): 98.1% | TGI % Day 23 (HCC-33 (SCLC) xenografts; 1 mg/kg): 99.2% | TGI % Day 27 (HCC-33 (SCLC) xenografts; 1 mg/kg): 99.6% | TGI % Day 30 (HCC-33 (SCLC) xenografts; 1 mg/kg): 99.6% | TGI % Day 5 (HCC-33 (SCLC) xenografts; 2 mg/kg): 47% | TGI % Day 8 (HCC-33 (SCLC) xenografts; 2 mg/kg): 74.8% | TGI % Day 12 (HCC-33 (SCLC) xenografts; 2 mg/kg): 88.2% | TGI % Day 16 (HCC-33 (SCLC) xenografts; 2 mg/kg): 96.2% | TGI % Day 20 (HCC-33 (SCLC) xenografts; 2 mg/kg): 98.3% | TGI % Day 23 (HCC-33 (SCLC) xenografts; 2 mg/kg): 99.1% | TGI % Day 27 (HCC-33 (SCLC) xenografts; 2 mg/kg): 99.5% | TGI % Day 30 (HCC-33 (SCLC) xenografts; 2 mg/kg): 99.9% | Body weights (HCC-33 (SCLC) xenografts; [2]): increased | Tumor regression (HCC-33 (SCLC) xenografts; [2]): ~100% | difference in IC50 with or without octreotide competition [1]: 12.2 fold

Source: patent publication US11160871B2, “SSTR-targeted conjugates and particles and formulations thereof” (TARVEDA THERAPEUTICS, INC., priority 2015, dated 2021)
